Measured values reported in patent US4150970A, “Growth regulator for plants” (Board of Trustees of Michigan State University, priority 1977, dated 1979).

What was measured:
Assay type in all cases: in vivo
[1] = system: Starbonnet rice seedlings; assay: Dry weight, leaf area and water uptake of rice under two light intensities (Example XVI)
Protocol: (§1) Rice seed cv. IR-8, or Starbonnet was surface treated with 0.1 percent mercuric chloride and planted in 77 cc plastic cups containing vermiculite and watered with one-fourth Hoagland's nutrient solution containing 3 mM of nitrogen at pH 5.0. After 10 days, seedlings were transplanted to 220 cc specimen cups wrapped in aluminum foil and containing 180 cc of the same Hoagland's nutrient solution. Four seedlings were suspended in the solution with a sponge rubber disc. The plants were grown under a 8 h night at 25° C. and a 16 h day at 30° C. with 21 and 8 μwatts per cm^2 in the blue and red spectra respectively. In the test with varying light intensity the high light intensity was 30 13 and the low intensity was 15 and 8 μwatts per cm^2 for the blue and red spectra respectively. The nutrient solution was renewed every 2 or 3 days. After one week the plants were sorted for size and similar sized plants assigned to the same block for the experiment. Prior to the initiation of a test the plants in each cup were assigned treatment numbers by use of a random number table. […] Sixteen hours prior to a test the foil wrapped cups were tared, and filled with one-half Hoaglands solution containing 6 mM nitrogen. Eighteen μl of chloroform or chloroform containing 1.8 μg triacontanol were placed on 2 cm^2 of Whatman No. 1 filter papers, air dried and placed in the specimen cups. This concentration of 10 μg triacontanol/liter was used for all tests described in the following Examples except where specifically indicated to the contrary. Immediately prior to the test the cups were all brought up to 180 ml. including a set of cups without plants to measure evaporation.
(§2) Water uptake was measured by weighing the cups after removal of the plants and subtracting the tare and the water evaporated. For tests continued for more than one day, the solution used was measured every 3 days and new Hoagland's added and the pH maintained at 5.0 with sulfuric acid.
(§3) The plants were disected at harvest into shoots and roots. The expanded leaves were cut at the ligule and the newest leaf at the point it entered the sheath. The surface area of expanded leaves were measured using a Lambda Model LI-3000 planimeter. The plants were dried to constant weight in an oven at 100° C. and the roots, expanded leaves, and sheaths were weighed separately.
Fourteen day old "Starbonnet" rice seedlings were prepared and treated with triacontanol as explained in Example IV above.
The increase in dry weight and leaf area and the water uptake of the rice seedlings treated with triacontanol under two different light intensities was determined. High light was 30 and 13 μwatts/cm^2 and low light 15 and 8 μwatts/cm^2 in the blue and red spectra respectively. The plants were exposed to these light conditions 36 hours prior to treatment. At zero time the plants under low light intensity weighed 26.0 mg with 4.41 cm^2 leaf area. The high light plants weighed 29.5 mg per plant with 4.01 cm^2 leaf area per plant. FIGS. 1, 2 and 3 of the accompanying drawings show the results of these tests. In each Figure, A=low light control; B=low light+triacontanol; C=high light control; and D=high light+triacontanol. Presented in tabular form, the data for FIGS. 1, 2 and 3 appears in Table XVI, as follows: […]

[2] = system: IR-8 rice seedlings; assay: Growth and water uptake of IR-8 rice seedlings (Example IV); details: for Dry Wt. per plant / Leaf Area per plant / Water Uptake per leaf area / Water Uptake per plant: 10 μg/liter
Protocol: as §1, §2, §3
Four to 6 replicates were used in each experiment in a randomized complete block design. The data were submitted to analysis of variance. Means were compared by use of the L.S.D. except where there was only one degree of freedom for treatment. In these instances the F value from the analysis of variance was used for comparison of means.
To determine the effect of triacontanol on growth and water uptake of IR-8 rice seedlings, the seedlings were prepared as above explained. Alternate seedlings were treated with no triacontanol or with a concentration of 10 μg triacontanol per liter as above set forth. Leaf area, dry weight and water uptake were determined for each plant at 0 time and at 8, 24, 72 and 216 hour intervals.

[3] = system: Mich. 396 Field Corn; assay: Single and multiple applications on field corn at two fertility levels (Example XIV)
Protocol: Tests were run to study the effect of single and multiple applications of triacontanol on the growth of "Mich. 396 Field Corn" grown at two Fertility Levels in a greenhouse soil. Plants were treated at 14 days after planting and were harvested 37 days after planting. The following results were obtained (Table XIV).

[4] = system: rice; assay: Synthetic triacontanol on rice in nutrient cultures (Example III); details: for Dry wt / Water Uptake: seven days
Protocol: Synthetic triacontanol in aqueous solution was applied to rice (4 replicates) in nutrient cultures and to "Chico III" tomatoes (6 replicates) grown in soil as previously described. The response of both rice and tomatoes to synthetic triacontanol after seven and six days respectively was similar to that of the natural triacontanol with the optimum rate at between 0.01 and 0.1 mg per liter, as summarized in the following table III:
^1 Treatments applied on filter paper, including control and placed i
nutrient solution. The solution was changed after 4 days. Seedlings
weighed 57 mg at initiation of test.

[5] = system: IR-8 rice seedlings; assay: Total protein content of rice seedlings grown in the dark for six hours (Example VIII)
Protocol: as §1
Plants were placed in 20×32 cm glass jars fitted with gas inlet and outlet ports. Three jars containing 2 cups each were used for a total of 24 plants for each treatment. The plants were ventilated with air or freed of CO2 by passing it through ascarite and then humidified. The flow rate was approximately 300 ml/minute. […]
The total protein (nitrogen) content of 17 day old "IR-8" rice seedlings was determined, where […]

[6] = 10 μg per liter, nutrient solution

With `CCCCCCCCCCCCCCCCCCCCCCCCCCCCCCO` [Triacontanol, 1-triacontanol] the “Dry Wt., Percent Increase from Zero Time” value ([1]; high light, 4 hr) was 16%, the “Leaf Area, Percent Increase from Zero Time” value (from here on “Leaf Area, Percent Increase”) ([1]; high light, 4 hr) was 19% and the “Water Uptake” value ([1]; high light, 4 hr) was 192 μl/cm^2 leaf area. For the same compound, the “Dry Wt., Percent Increase from Zero Time” value ([1]; high light, 8 hr) was 27%, the “Leaf Area, Percent Increase” value ([1]; high light, 8 hr) was 38% and the “Water Uptake” value ([1]; high light, 8 hr) was 351 μl/cm^2 leaf area. For the same compound, the “Dry Wt., Percent Increase from Zero Time” value ([1]; high light, 16 hr) was 51%, the “Leaf Area, Percent Increase” value ([1]; high light, 16 hr) was 88% and the “Water Uptake” value ([1]; high light, 16 hr) was 649 μl/cm^2 leaf area. The “dry weight and leaf area gain under low light versus control under high light” value ([1]; low light conditions) was “gained as much dry weight and leaf area as the control plants did when subjected to high light conditions”, the “Dry Wt., Percent Increase from Zero Time” value ([1]; low light, 4 hr) was 10% and the “Leaf Area, Percent Increase” value ([1]; low light, 4 hr) was 7%. The “Water Uptake” value ([1]; low light, 4 hr) was 117 μl/cm^2 leaf area, the “Dry Wt., Percent Increase from Zero Time” value ([1]; low light, 8 hr) was 23% and the “Leaf Area, Percent Increase” value ([1]; low light, 8 hr) was 31%. For the same compound, the “Water Uptake” value ([1]; low light, 8 hr) was 239 μl/cm^2 leaf area, the “Dry Wt., Percent Increase from Zero Time” value ([1]; low light, 16 hr) was 45% and the “Leaf Area, Percent Increase” value ([1]; low light, 16 hr) was 64%. The “Water Uptake” value ([1]; low light, 16 hr) was 453 μl/cm^2 leaf area, the “time within which dry weight of entire plant significantly increased” value [2, 6] was at most 3 days and the “time within which leaf area significantly increased” value [2, 6] was at most 8 h. For the same compound, the “Dry Wt. per plant” value ([2]; 8 hours) was 53.4 mg, the “Leaf Area per plant” value ([2]; 8 hours) was 8.2 cm^2 and the “Water Uptake per leaf area” value ([2]; 8 hours) was 0.25 ml/cm^2 leaf area. The “Water Uptake per plant” value ([2]; 8 hours) was 2.0 mL, the “Dry Wt. per plant” value ([2]; 24 hours) was 58.6 mg and the “Leaf Area per plant” value ([2]; 24 hours) was 9.0 cm^2. The “Water Uptake per leaf area” value ([2]; 24 hours) was 0.35 ml/cm^2 leaf area, the “Water Uptake per plant” value ([2]; 24 hours) was 3.2 mL and the “Dry Wt. per plant” value ([2]; 72 hours) was 81.7 mg. For the same compound, the “Leaf Area per plant” value ([2]; 72 hours) was 13.7 cm^2, the “Water Uptake per leaf area” value ([2]; 72 hours) was 1.34 ml/cm^2 leaf area and the “Water Uptake per plant” value ([2]; 72 hours) was 18.4 mL. The “Dry Wt. per plant” value ([2]; 216 hours) was 204.0 mg, the “Leaf Area per plant” value ([2]; 216 hours) was 22.4 cm^2 and the “Water Uptake per leaf area” value ([2]; 216 hours) was 2.92 ml/cm^2 leaf area. The “Water Uptake per plant” value ([2]; 216 hours) was 65.5 mL, the “Dry Weight” value ([3]; high fertility, 1 application) was 2.032 g/plant and the “Dry Weight” value ([3]; high fertility, 5 applications) was 1.913 g/plant. The “Dry Weight” value ([3]; low fertility, 1 application) was 1.297 g/plant, the “Dry Weight” value ([3]; low fertility, 5 applications) was 1.696 g/plant and the Dry wt ([4]; 0.001 mg/liter) was 103 mg/plant. The Water Uptake ([4]; 0.001 mg/liter) was 37.0 g/plant, the Dry wt ([4]; 0.010 mg/liter) was 107 mg/plant and the Water Uptake ([4]; 0.010 mg/liter) was 38.8 g/plant. It also gave a Dry wt ([4]; 0.100 mg/liter) of 106 mg/plant, a Water Uptake ([4]; 0.100 mg/liter) of 39.0 g/plant and a Dry wt ([4]; 1.000 mg/liter) of 91 mg/plant. The Water Uptake ([4]; 1.000 mg/liter) was 33.4 g/plant, the minimal effective concentration ([4]; Oryza sativa, soil, rice seedlings, nutrient cultures) was at least 0.001 µg/mL and the “higher concentration of total protein in 4th leaf than the control” value [5] was 11%. For the same compound, the “total increase in protein per plant versus zero time” value [5] was 18% and the “total protein per (4th) leaf” value [5] was “doubling”.
